In patent US20260176279A1, “DUAL RAF AND TUBULIN INHIBITORS AND METHODS OF USE THEREOF” (Deciphera Pharmaceuticals, LLC, priority 2023, published 2026) one finds IC50 data, which are given here for five compounds.

Each structure is given as a SMILES string. Where two headings read alike, the source gives them in different places.

The target in one test is T1, C-Raf kinase (Homo sapiens, UniProt P04049, Y340D/Y341D).
T1 construct: C-Raf residues 306-end; Y340D, Y341D with N-; GST (N); purchased Eurofins
Put plainly: Biochemical Assay for C-Raf (coupled pyruvate kinase/lactate dehydrogenase assay).

The next test relates to tubulin. The test is described as follows: Cellular Tubulin Polymerization Assay (HCT-116 cells). The class given is cell-based. The note with it: Table 3, HCT-116 cells; read-out: Tubulin Cellular IC50.
For the next test, the system named is HCT-116 cells. The test is described as follows: HCT-116 Cell Proliferation Assay. The class given is cell-based. The note with it: Homo sapiens. Here is the method: HCT-116 cells (catalog #CCL-247) are obtained from the American Type Culture Collect (ATCC, Manassas, VA). Briefly, cells are grown in McCoy's 5A supplemented with 10% characterized fetal bovine serum (Invitrogen, Carlsbad, CA) and 1% Penicillin/Streptomycin/L-Glutamine at 37° C., 5% CO2, and 95% humidity. Cells are expanded until reaching 70-95% confluency at which point they are sub-cultured or harvested for assay use. A serial dilution of test compound is dispensed into a 384-well black clear bottom plate in triplicate. 375 cells are added per well in 50 μL complete growth medium in the 384-well plate. Plates are incubated for 67 to 72 h at 37° C., 5% CO2, and 95% humidity. At the end of the incubation, 40 μL of a […] solution of resazurin (Sigma, St. Louis, MO) in PBS is added to each well of the plate and plates are incubated for an additional 4 to 5 hours at 37° C., 5% CO2, and 95% humidity. Plates are read on a Synergy2 or equivalent reader (Biotek, Winooski, VT) using an excitation of 540 nm and an emission of 600 nm. Data is analyzed using Prism software (Graphpad, San Diego, CA) to calculate IC50 values.

Another test has as its system MiaPaca-2 cells. Put plainly: MiaPaca-2 Cell Proliferation Assay. The class given is cell-based. The settings on record: Homo sapiens, MIA PaCa-2.
In the next test the test system is Pa16c cells. Put plainly: Pa16c Cell Proliferation Assay. In kind it is cell-based. The note with it: Table 2, inhibition of cell proliferation. Here is the method: Pa16c cells are obtained from Dr. Channing Der, University of North Carolina at Chapel Hill. Briefly, cells are grown in Dulbecco's Modified Eagle Medium supplemented with 10% characterized fetal bovine serum (Invitrogen, Carlsbad, CA) and 1% Penicillin/Streptomycin/L-Glutamine at 37° C., 5% CO2, and 95% humidity. Cells are expanded until reaching 70-95% confluency at which point they are sub-cultured or harvested for assay use. A serial dilution of test compound is dispensed into a 384-well black clear bottom plate in triplicate. 750 cells are added per well in 50 μL complete growth medium in the 384-well plate. Plates are incubated for 67 to 72 hours at 37° C., 5% CO2, and 95% humidity. At the end of the incubation, 40 μL of a […] solution of resazurin (Sigma, St. Louis, MO) in PBS is added to each well of the plate and plates are incubated for an additional 18 to 24 hours at 37° C., 5% CO2, and 95% humidity. Plates are read on a Synergy2 or equivalent reader (Biotek, Winooski, VT) using an excitation of 540 nm and an emission of 600 nm. Data is analyzed using Prism software (Graphpad, San Diego, CA) to calculate IC50 values.

The test system of the next test is HPAF-II cells. Put plainly: HPAF-II Cell Proliferation Assay. The settings on record: Homo sapiens. The class given is cell-based. Here is the method: HPAF-II cells (catalog #CRL-1997) are obtained from the American Type Culture Collect (ATCC, Manassas, VA). Briefly, cells are grown in Minimum Essential Media supplemented with 10% characterized fetal bovine serum (Invitrogen, Carlsbad, CA) and 1% Penicillin/Streptomycin/L-Glutamine at 37° C., 5% CO2, and 95% humidity. Cells are expanded until reaching 70-95% confluency at which point they are sub-cultured or harvested for assay use. A serial dilution of test compound is dispensed into a 384-well black clear bottom plate in triplicate. 750 cells are added per well in 50 μL complete growth medium in the 384-well plate. Plates are incubated for 115 to 120 h at 37° C., 5% CO2, and 95% humidity. At the end of the incubation, 40 μL of a […] solution of resazurin (Sigma, St. Louis, MO) in PBS is added to each well of the plate and plates are incubated for an additional 18 to 24 h at 37° C., 5% CO2, and 95% humidity. Plates are read on a Synergy2 or equivalent reader (Biotek, Winooski, VT) using an excitation of 540 nm and an emission of 600 nm. Data is analyzed using Prism software (Graphpad, San Diego, CA) to calculate IC50 values.

For another test, the target named is T2, B-Raf kinase (Homo sapiens, UniProt P15056).
T2 construct: GST (N); purchased Sigma
The test is described as follows: Biochemical Assay for B-Raf (coupled pyruvate kinase/lactate dehydrogenase assay).

Where [1] appears, read: Table 1, inhibition of biochemical activity, read-out: CRAF.
[2] abbreviates: HCT-116, Table 3, read-out: HCT-116 IC50.
[3] abbreviates: Table 2, inhibition of cell proliferation, read-out: HCT-116.
Setting [4] is: Table 2, inhibition of cell proliferation, read-out: MiaPaca-2.
Setting [5] is: Table 3, read-out: MiaPaca-2 IC50.
Setting [6] is: HPAF-II, Table 3, read-out: HPAF-II IC50.
Where [7] appears, read: Table 2, inhibition of cell proliferation, read-out: HPAF-II.
[8] abbreviates: Table 1, inhibition of biochemical activity, read-out: BRAF.

T2 sequence (P15056 416-766): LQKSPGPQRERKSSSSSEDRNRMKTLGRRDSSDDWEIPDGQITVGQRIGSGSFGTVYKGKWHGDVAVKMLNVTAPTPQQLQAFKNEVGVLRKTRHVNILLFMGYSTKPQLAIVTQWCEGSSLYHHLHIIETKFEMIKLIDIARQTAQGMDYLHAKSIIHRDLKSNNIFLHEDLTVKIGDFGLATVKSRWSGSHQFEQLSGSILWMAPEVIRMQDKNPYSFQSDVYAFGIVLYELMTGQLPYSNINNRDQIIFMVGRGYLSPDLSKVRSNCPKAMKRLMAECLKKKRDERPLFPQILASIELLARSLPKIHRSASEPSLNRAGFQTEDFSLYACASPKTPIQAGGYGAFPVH
T1 sequence (P04049 307-648 Y340D/Y341D): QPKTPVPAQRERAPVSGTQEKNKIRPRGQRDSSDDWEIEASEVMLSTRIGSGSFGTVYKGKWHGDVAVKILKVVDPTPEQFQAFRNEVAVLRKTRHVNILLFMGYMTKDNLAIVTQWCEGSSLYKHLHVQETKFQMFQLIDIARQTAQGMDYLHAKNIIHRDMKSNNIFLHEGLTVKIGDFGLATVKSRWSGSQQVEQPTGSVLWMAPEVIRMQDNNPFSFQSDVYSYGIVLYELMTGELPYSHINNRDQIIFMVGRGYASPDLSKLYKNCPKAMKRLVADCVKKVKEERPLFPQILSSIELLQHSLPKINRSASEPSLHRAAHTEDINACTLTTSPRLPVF

`CC(=O)Nc1cc(-c2cc(-c3cc(NC(=O)Nc4ccc(C(F)(F)F)nc4)ccc3C)cn(C)c2=O)ccn1` [Example 9]: the IC50 was less than 100 nM at C-Raf kinase (setting [1]); less than 100 nM on C-Raf kinase (Table 3, read-out: CRAF IC50); less than 100 nM in the test with tubulin; less than 100 nM with HCT-116 cells (setting [2]); less than 100 nM in the test with HCT-116 cells (setting [3]); less than 100 nM in the test with MiaPaca-2 cells (setting [4]). The IC50 with MiaPaca-2 cells (setting [5]) is less than 100 nM; in the test with Pa16c cells, 100 to 500 nM; in the test with HPAF-II cells (setting [6]), 500 to 1000 nM; in the test with HPAF-II cells (setting [7]), 500 to 1000 nM; on B-Raf kinase (setting [8]) it was less than 100 nM; on B-Raf kinase (Table 3, read-out: BRAF IC50), less than 100 nM.
Regarding `CC(=O)Nc1cc(-c2cc(-c3cc(NC(=O)Nc4ccc(C(F)(F)F)nc4)ccc3C)ccn2)ccn1` [Example 4], the IC50 at C-Raf kinase (setting [1]) was less than 100 nM; at C-Raf kinase (Table 3, read-out: CRAF IC50), less than 100 nM; in the test with tubulin, less than 100 nM; with HCT-116 cells (setting [2]), less than 100 nM; in the test on HCT-116 cells (setting [3]), less than 100 nM; in the test on MiaPaca-2 cells (setting [4]) it was less than 100 nM. The IC50 is less than 100 nM in the test on MiaPaca-2 cells (setting [5]); less than 100 nM in the test on Pa16c cells; 100 to 500 nM in the test with HPAF-II cells (setting [6]); 100 to 500 nM in the test on HPAF-II cells (setting [7]); less than 100 nM on B-Raf kinase (setting [8]); less than 100 nM on B-Raf kinase (Table 3, read-out: BRAF IC50).
Regarding `Cc1ccc(NC(=O)Nc2ccc(C(F)(F)F)nc2)cc1-c1cc(OC[C@@H](C)O)nc(N2CCOCC2)c1` [Example 40], the IC50 at C-Raf kinase (setting [1]) was less than 100 nM; at C-Raf kinase (Table 3, read-out: CRAF IC50), less than 100 nM; with tubulin it was less than 100 nM; in the test with HCT-116 cells (setting [2]), less than 100 nM; in the test on HCT-116 cells (setting [3]) it was less than 100 nM; in the test on MiaPaca-2 cells (setting [4]), less than 100 nM. In addition, the IC50 in the test on MiaPaca-2 cells (setting [5]) was less than 100 nM; in the test with Pa16c cells it was 100 to 500 nM; in the test with HPAF-II cells (setting [6]), less than 100 nM; in the test on HPAF-II cells (setting [7]), less than 100 nM; on B-Raf kinase (setting [8]) it was less than 100 nM; at B-Raf kinase (Table 3, read-out: BRAF IC50) it was 100 to 500 nM.
With `Cc1ccc(NC(=O)Nc2ccc(C(F)(F)F)nc2)cc1-c1cc(OC[C@H](C)O)nc(N2CCOCC2)c1` [Example 39], the IC50 at C-Raf kinase (setting [1]) was less than 100 nM; on C-Raf kinase (Table 3, read-out: CRAF IC50), less than 100 nM; in the test with tubulin, less than 100 nM; in the test on HCT-116 cells (setting [2]), less than 100 nM; in the test on HCT-116 cells (setting [3]), less than 100 nM; with MiaPaca-2 cells (setting [4]), less than 100 nM. In addition, the IC50 in the test with MiaPaca-2 cells (setting [5]) is less than 100 nM; with Pa16c cells, 100 to 500 nM; in the test with HPAF-II cells (setting [6]), less than 100 nM; in the test on HPAF-II cells (setting [7]), less than 100 nM; on B-Raf kinase (setting [8]) it was 100 to 500 nM; on B-Raf kinase (Table 3, read-out: BRAF IC50), 100 to 500 nM.
In the case of `Cc1ccc(NC(=O)Nc2ccc(C(F)(F)F)nc2)cc1-c1cc(N2CCOCC2)nc(N2CCC(O)CC2)n1` [Example 34], the IC50 is less than 100 nM at C-Raf kinase (setting [1]); 100 to 500 nM on C-Raf kinase (Table 3, read-out: CRAF IC50); less than 100 nM with tubulin; less than 100 nM in the test on HCT-116 cells (setting [2]); less than 100 nM in the test on HCT-116 cells (setting [3]); less than 100 nM in the test with MiaPaca-2 cells (setting [4]). Further, the IC50 in the test with MiaPaca-2 cells (setting [5]) is less than 100 nM; with Pa16c cells it was 500 to 1000 nM; in the test on HPAF-II cells (setting [6]) it was 100 to 500 nM; in the test on HPAF-II cells (setting [7]), 100 to 500 nM; at B-Raf kinase (setting [8]), 100 to 500 nM; at B-Raf kinase (Table 3, read-out: BRAF IC50), 100 to 500 nM.
